Measurements reported in patent US20090264338A1, “Inhibitor of Insulin Multimer Formation” (priority 2005, published 2009).

Experiments:
[1] = tested on: Fc-fusion human insulin receptor; assay: BIACORE 2000 analysis of the interaction between insulin and insulin receptor in the presence of the peptides; type: binding; conditions: 5 μM insulin forming a hexamer in the presence of 100 μM ZnCl2, 500 μM peptide added
Description: A DNA sequence encoding the Fc-fusion human insulin receptor (Bass, J. J. Biol. Chem. 271, 19367 (1996)) was constructed and inserted into the vector pEF-BOS (Nucleic Acids Res. 1990 Sep. 11; 18(17): 5322). Mammalian cells, FreeStyle 293-F, were cultured at 37° C., and the concentration of the cells was adjusted to 1×10^6 cells/mL. The insulin receptor-expressing plasmid was mixed with Cellfectin (Invitrogen Corporation), and added to the cells, followed by culture for an additional two days. The obtained culture supernatant was purified by protein A affinity chromatography, to yield an Fc-fusion human insulin receptor.
Commercially available insulin (manufactured by Sigma-Aldrich Corp.) and the Fc-fusion human insulin receptor obtained by the method above (item (1)) were used to analyze the interaction between insulin and the insulin receptor (BIACORE 2000, manufactured by Biacore Medical Technologies, Inc.). First, PBS with or without 100 μM ZnCl2 was used to prepare 5 μM insulin solutions.
Subsequently, 500 μM INHD1 and INHD2 peptides were added to insulin that forms a hexamer in the presence of ZnCl2, and the interaction between insulin and the insulin receptor was observed.

[2] = molecular target: T1, insulin hexamer (Homo sapiens, UniProt P01308); assay: Gel filtration chromatography of insulin hexamer formation in the presence of INHD peptide; type: biochemical; conditions: 5 μM insulin
T1 construct: purchased Sigma-Aldrich Corp
T1 sequence (P01308 25-54 limits assumed): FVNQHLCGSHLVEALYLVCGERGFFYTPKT
T1 sequence (P01308 90-110 limits assumed): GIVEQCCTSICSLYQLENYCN
Description: In order to separately detect insulin hexamers and insulin monomers, gel filtration chromatography was performed. PBS supplemented with 100 μM ZnCl2 was used as a solvent to form hexamers at a concentration of this experiment (5 μM). This is because zinc ion stabilizes insulin hexamers. For the 5 μM insulin solution, the hexamer was the main peak, and the ratio of the monomer was extremely low.
The insulin solution was subjected to gel filtration chromatography in the presence of the INHD peptide to show inhibition of insulin hexamer formation by the INHD peptide.

| peak which represents the insulin hexamer (gel filtration) ([2]; 500 μM peptide, PBS with 100 μM ZnCl2) | Substance | receptor binding of insulin (interaction between insulin and the insulin receptor) [1] | inhibition of hexamer formation (gel filtration) ([2]; PBS with 100 μM ZnCl2, compared with INHD1 peptide) |
| --- | --- | --- | --- |
| significantly decreased | INHD1: Designed peptide from insulin B-chain positions 5 to 29, with Glu/Lys introduced, Glu13 to Gln, Leu17 to Ala, Cys19 to Ser (HEEGSKKVQELYAKSGERGFFYTPK) | significantly increased to a level approximately equal to that with an insulin monomer |  |
|  | INHD2: Smaller designed peptide corresponding to the insulin B-chain α-helix at positions 5 to 20 (HEEGSKKVQELYAKSG) | significantly increased to a level approximately equal to that with an insulin monomer | slightly lower than that for the INHD1 peptide |
